Values of other authors in PubChem BioAssay AID1259409 (Chemical Carcinogenesis Research Information System (CCRIS), 2018).

Test system: rodent chemically induced tumor inhibition, incidence and multiplicity
Experiment: CCRIS tumor inhibitor studies
Conditions: Carcinogen: DIETHYLNITROSAMINE, 55-18-5, N-METHYLNITROSOUREA, 684-93-5, 1,2-DIMETHYLHYDRAZINE, 540-73-8, Carcinogen: DIETHYLNITROSAMINE, 55-18-5, N-METHYLNITROSOUREA, 684-93-5, 1,2-DIMETHYLHYDRAZINE, 540-73-8, Dose [Inhibitor]: 0, Route [Inhibitor]: ORAL, Species: RAT, Strain/Sex: F344/MALE, Dose [Carcinogen]: 100 MG/KG DEN ONCE, 20 MG/KG MNU 4 TIMES, 40 MG/KG DMH 4 TIMES, 0.05% BBN IN DRINKING WATER FOR 2 WK, 0.1% DHPN IN D, Dose [Carcinogen]: 100 MG/KG DEN ONCE, 20 MG/KG MNU 4 TIMES, 40 MG/KG DMH 4 TIMES, 0.05% BBN IN DRINKING WATER FOR 2 WK, 0.1% DHPN IN D, Promoter: NONE USED

For `COc1cc(C=O)ccc1O`, the “tumour outcome (control, treated, inhibition, significance)” value (N-BUTYL-N-(4-HYDROXYB, N-BUTYL-N-(4-HYDROXYB, 1% IN DIET FOR 4 WK BEGINNING 1 DAY PRIOR TO CARCINOGEN TREATMENT (STUDY DURATION: 36 WK), Target Tissue: Type of Lesion: KIDNEY: ADENOMA) is listed as 4/14 (29%), 4/15 (27%), 7%, not significant, the “tumour outcome (control, treated, inhibition, significance)” value (N-BUTYL-N-(4-HYDROXYB, N-BUTYL-N-(4-HYDROXYB, 1% IN DIET FOR 4 WK BEGINNING 1 DAY PRIOR TO CARCINOGEN TREATMENT (STUDY DURATION: 36 WK), Target Tissue: Type of Lesion: KIDNEY: NEPHROBLASTOMA) is listed as 7/14 (50%), 8/15 (53%), -6%, not significant and the “tumour outcome (control, treated, inhibition, significance)” value (N-BUTYL-N-(4-HYDROXYB, N-BUTYL-N-(4-HYDROXYB, 1% IN DIET FOR 4 WK BEGINNING 1 DAY PRIOR TO CARCINOGEN TREATMENT (STUDY DURATION: 36 WK), Target Tissue: Type of Lesion: LARGE INTESTINE: ADENOMA) is listed as 7/14 (50%), 6/15 (40%), 20%, not significant. For the same compound, the “tumour outcome (control, treated, inhibition, significance)” value (N-BUTYL-N-(4-HYDROXYB, N-BUTYL-N-(4-HYDROXYB, 1% IN DIET FOR 4 WK BEGINNING 1 DAY PRIOR TO CARCINOGEN TREATMENT (STUDY DURATION: 36 WK), Target Tissue: Type of Lesion: LARGE INTESTINE: CARCINOMA) was 3/14 (21%), 11/15 (73%), -248%, p<0.01, the “tumour outcome (control, treated, inhibition, significance)” value (N-BUTYL-N-(4-HYDROXYB, N-BUTYL-N-(4-HYDROXYB, 1% IN DIET FOR 4 WK BEGINNING 1 DAY PRIOR TO CARCINOGEN TREATMENT (STUDY DURATION: 36 WK), Target Tissue: Type of Lesion: LUNG: ADENOMA) was 6/14 (43%), 2/15 (13%), 70%, not significant and the “tumour outcome (control, treated, inhibition, significance)” value (N-BUTYL-N-(4-HYDROXYB, N-BUTYL-N-(4-HYDROXYB, 1% IN DIET FOR 4 WK BEGINNING 1 DAY PRIOR TO CARCINOGEN TREATMENT (STUDY DURATION: 36 WK), Target Tissue: Type of Lesion: SMALL INTESTINE: ADENOMA) was 6/14 (43%), 3/15 (20%), 53%, not significant. For the same compound, the “tumour outcome (control, treated, inhibition, significance)” value (N-BUTYL-N-(4-HYDROXYB, N-BUTYL-N-(4-HYDROXYB, 1% IN DIET FOR 4 WK BEGINNING 1 DAY PRIOR TO CARCINOGEN TREATMENT (STUDY DURATION: 36 WK), Target Tissue: Type of Lesion: SMALL INTESTINE: CARCINOMA) was 5/14 (36%), 2/15 (13%), 64%, not significant, the “tumour outcome (control, treated, inhibition, significance)” value (N-BUTYL-N-(4-HYDROXYB, N-BUTYL-N-(4-HYDROXYB, 1% IN DIET FOR 32 WK BEGINNING POST CARCINOGEN TREATMENT (STUDY DURATION: 36 WK), Target Tissue: Type of Lesion: KIDNEY: ADENOMA) was 4/14 (29%), 9/15 (60%), -107%, not significant and the “tumour outcome (control, treated, inhibition, significance)” value (N-BUTYL-N-(4-HYDROXYB, N-BUTYL-N-(4-HYDROXYB, 1% IN DIET FOR 32 WK BEGINNING POST CARCINOGEN TREATMENT (STUDY DURATION: 36 WK), Target Tissue: Type of Lesion: KIDNEY: NEPHROBLASTOMA) was 7/14 (50%), 11/15 (73%), -46%, not significant. For the same compound, the “tumour outcome (control, treated, inhibition, significance)” value (N-BUTYL-N-(4-HYDROXYB, N-BUTYL-N-(4-HYDROXYB, 1% IN DIET FOR 32 WK BEGINNING POST CARCINOGEN TREATMENT (STUDY DURATION: 36 WK), Target Tissue: Type of Lesion: LARGE INTESTINE: CARCINOMA) was 3/14 (21%), 5/15 (33%), -57%, not significant, the “tumour outcome (control, treated, inhibition, significance)” value (N-BUTYL-N-(4-HYDROXYB, N-BUTYL-N-(4-HYDROXYB, 1% IN DIET FOR 32 WK BEGINNING POST CARCINOGEN TREATMENT (STUDY DURATION: 36 WK), Target Tissue: Type of Lesion: SMALL INTESTINE: ADENOMA) was 6/14 (43%), 4/15 (27%), 37%, not significant and the “tumour outcome (control, treated, inhibition, significance)” value (N-BUTYL-N-(4-HYDROXYB, N-BUTYL-N-(4-HYDROXYB, 1% IN DIET FOR 32 WK BEGINNING POST CARCINOGEN TREATMENT (STUDY DURATION: 36 WK), Target Tissue: Type of Lesion: SMALL INTESTINE: CARCINOMA) was 5/14 (36%), 1/15 (7%), 81%, not significant. For the same compound, the “tumour outcome (control, treated, inhibition, significance)” value (N-BUTYL-N-(4-HYDROXYBU, N-BUTYL-N-(4-HYDROXYBU, 1% IN DIET FOR 32 WK BEGINNING POST CARCINOGEN TREATMENT (STUDY DURATION: 36 WK), Target Tissue: Type of Lesion: LARGE INTESTINE: ADENOMA) was 7/14 (50%), 8/15 (53%), -6%, not significant and the “tumour outcome (control, treated, inhibition, significance)” value (N-BUTYL-N-(4-HYDROXYBU, N-BUTYL-N-(4-HYDROXYBU, 1% IN DIET FOR 32 WK BEGINNING POST CARCINOGEN TREATMENT (STUDY DURATION: 36 WK), Target Tissue: Type of Lesion: LUNG: ADENOMA) was 6/14 (43%), 3/15 (20%), 53%, p<0.05.
